The values below come from US8629276B2, “Inhibitors of human immunodeficiency virus replication” (priority 2012, dated 2014).

For orientation: EC50 means the concentration giving half of the maximal effect.

The test system of this experiment is recombinant NL-Rluc virus. The experiment can be described thus: Inhibition of HIV replication (NL-RLuc virus, luciferase readout in MT-2 cells). In kind it is cell-based. To be noted: Human immunodeficiency virus 1, MT2, 120 h.
`Cc1nc2c(c(-c3cc(F)c4c(c3C)CCCO4)c1[C@H](OC(C)(C)C)C(=O)O)CN(CCCc1ccccc1)CC2` (atropisomer, axis not shown) [Example 42, (2S)-2-(tert-Butoxy)-2-((R)-4-(8-fluoro-5-methylchroman-6-yl)-2-methyl-6-(3-phenylpropyl)-5,6,7,8-tetrahydro-1,6-naphthyridin-3-yl)acetic acid]: the EC50 worked out at 7 nM.
The result for `Cc1nc2c(c(-c3cc(F)c4c(c3C)CCCO4)c1[C@H](OC(C)(C)C)C(=O)O)CN(CCCc1ccc(Cl)cc1)CC2` (atropisomer, axis not shown) [Example 44, (2S)-2-(tert-Butoxy)-2-(6-(3-(4-chlorophenyl)propyl)-(R)-4-(8-fluoro-5-methylchroman-6-yl)-2-methyl-5,6,7,8-tetrahydro-1,6-naphthyridin-3-yl)acetic acid] reads 3 nM; that for `Cc1nc2c(c(-c3cc(F)c4c(c3C)CCCO4)c1[C@H](OC(C)(C)C)C(=O)O)CN(CCCc1ccc(F)cc1)CC2` (atropisomer, axis not shown) [Example 45, (S)-2-(tert-Butoxy)-2-((R)-4-(8-fluoro-5-methylchroman-6-yl)-6-(3-(4-fluorophenyl)propyl)-2-methyl-5,6,7,8-tetrahydro-1,6-naphthyridin-3-yl)acetic acid], 4 nM.
The result for `Cc1cccc(CCCN2CCc3nc(C)c([C@H](OC(C)(C)C)C(=O)O)c(-c4cc(F)c5c(c4C)CCCO5)c3C2)c1` (atropisomer, axis not shown) [Example 47, (2S)-2-(tert-Butoxy)-2-((R)-4-(8-fluoro-5-methylchroman-6-yl)-2-methyl-6-(3-(m-tolyl)propyl)-5,6,7,8-tetrahydro-1,6-naphthyridin-3-yl)acetic acid] reads 2 nM.
The result for `Cc1ccccc1CCCN1CCc2nc(C)c([C@H](OC(C)(C)C)C(=O)O)c(-c3cc(F)c4c(c3C)CCCO4)c2C1` (atropisomer, axis not shown) [Example 48, (2S)-2-(tert-Butoxy)-2-((R)-4-(8-fluoro-5-methylchroman-6-yl)-2-methyl-6-(3-(o-tolyl)propyl)-5,6,7,8-tetrahydro-1,6-naphthyridin-3-yl)acetic acid] reads 2 nM.
As to `Cc1nc2c(c(-c3cc(F)c4c(c3C)CCCO4)c1[C@H](OC(C)(C)C)C(=O)O)CN(CCCc1cccc(F)c1)CC2` (atropisomer, axis not shown) [Example 49, (S)-2-(tert-Butoxy)-2-((R)-4-(8-fluoro-5-methylchroman-6-yl)-6-(3-(3-fluorophenyl)propyl)-2-methyl-5,6,7,8-tetrahydro-1,6-naphthyridin-3-yl)acetic acid], the EC50 was determined as 4 nM.
The result for `Cc1ccc(CCCN2CCc3nc(C)c([C@H](OC(C)(C)C)C(=O)O)c(-c4cc(F)c5c(c4C)CCCO5)c3C2)cc1F` (atropisomer, axis not shown) [Example 51] reads 1 nM.
The result for `Cc1cc(CCCN2CCc3nc(C)c([C@H](OC(C)(C)C)C(=O)O)c(-c4cc(F)c5c(c4C)CCCO5)c3C2)ccc1F` (atropisomer, axis not shown) [Example 52, (2S)-2-(tert-Butoxy)-2-(6-(3-(4-fluoro-3-methylphenyl)propyl)-(R)-4-(8-fluoro-5-methylchroman-6-yl)-2-methyl-5,6,7,8-tetrahydro-1,6-naphthyridin-3-yl)acetic acid] reads 2 nM; that for `Cc1nc2c(c(-c3cc(F)c4c(c3C)CCCO4)c1[C@H](OC(C)(C)C)C(=O)O)CN(CCCc1cccc(C(F)(F)F)c1)CC2` (atropisomer, axis not shown) [Example 53], 2 nM.
Take `Cc1nc2c(c(-c3cc(F)c4c(c3C)CCCO4)c1[C@H](OC(C)(C)C)C(=O)O)CN(CCCc1ccccc1F)CC2` (atropisomer, axis not shown) [Example 55, (2S)-2-(tert-Butoxy)-2-((R)-4-(8-fluoro-5-methylchroman-6-yl)-6-(3-(2-fluorophenyl)propyl)-2-methyl-5,6,7,8-tetrahydro-1,6-naphthyridin-3-yl)acetic acid]: the EC50 was 1 nM.
`Cc1ccc(S(=O)(=O)N[C@@H](Cc2ccccc2)C(=O)N2Cc3c(nc(C(C)C)c(C(OC(C)(C)C)C(=O)O)c3-c3ccc(F)cc3)C(C)(C)C2)cc1` (stereo in doubt) [Example 10, 2-tert-Butoxy-2-(4-(4-fluorophenyl)-2-isopropyl-8,8-dimethyl-6-(2-(4-methylphenylsulfonamido)-3-phenylpropanoyl)-5,6,7,8-tetrahydro-1,6-naphthyridin-3-yl)acetic acid]: the EC50 turned out to be 777 nM.
The result for `Cc1ccc(-c2c3c(nc(C)c2C(OC(C)(C)C)C(=O)O)CCN(C(=O)[C@H](Cc2ccccc2)NS(=O)(=O)c2ccc(C)cc2)C3)cc1` (stereo in doubt) [Example 32, 2-(tert-Butoxy)-2-(2-methyl-6-(2-(4-methylphenylsulfonamido)-3-phenylpropanoyl)-4-(p-tolyl)-5,6,7,8-tetrahydro-1,6-naphthyridin-3-yl)acetic acid] reads 2300 nM.
The result for `CC(=O)N1Cc2c(nc(C(C)C)c(C(OC(C)(C)C)C(=O)O)c2-c2ccc(F)cc2)C(C)(C)C1` (centres unmarked) [Example 2, 2-(6-Acetyl-4-(4-fluorophenyl)-2-isopropyl-8,8-dimethyl-5,6,7,8-tetrahydro-1,6-naphthyridin-3-yl)-2-tert-butoxyacetic acid] reads 10000 nM.
As to `CC(C)c1nc2c(c(-c3ccc(F)cc3)c1C(OC(C)(C)C)C(=O)O)CN(C(=O)c1ccccc1)CC2(C)C` (centres unmarked) [Example 3, 2-(6-Benzoyl-4-(4-fluorophenyl)-2-isopropyl-8,8-dimethyl-5,6,7,8-tetrahydro-1,6-naphthyridin-3-yl)-2-tert-butoxyacetic acid], the EC50 was determined as 6790 nM.
The result for `CC(C)c1nc2c(c(-c3ccc(F)cc3)c1C(OC(C)(C)C)C(=O)O)CN(C(=O)c1ccc(F)cc1)CC2(C)C` (centres unmarked) [Example 4, 2-tert-Butoxy-2-(6-(4-fluorobenzoyl)-4-(4-fluorophenyl)-2-isopropyl-8,8-dimethyl-5,6,7,8-tetrahydro-1,6-naphthyridin-3-yl)acetic acid] reads 3160 nM.
Turning to `CC(C)c1nc2c(c(-c3ccc(F)cc3)c1C(OC(C)(C)C)C(=O)O)CN(C(=O)Cc1ccc(OCc3ccccc3)cc1)CC2(C)C` (centres unmarked) [Example 5, 2-(6-(2-(4-(Benzyloxy)phenyl)acetyl)-4-(4-fluorophenyl)-2-isopropyl-8,8-dimethyl-5,6,7,8-tetrahydro-1,6-naphthyridin-3-yl)-2-tert-butoxyacetic acid], the EC50 amounted to 5130 nM.
The result for `CC(C)c1nc2c(c(-c3ccc(F)cc3)c1C(OC(C)(C)C)C(=O)O)CN(C(=O)Cc1ccc(F)cc1)CC2(C)C` (centres unmarked) [Example 6, 2-tert-Butoxy-2-(4-(4-fluorophenyl)-6-(2-(4-fluorophenyl)acetyl)-2-isopropyl-8,8-dimethyl-5,6,7,8-tetrahydro-1,6-naphthyridin-3-yl)acetic acid] reads 185 nM.
The result for `CC(C)c1nc2c(c(-c3ccc(F)cc3)c1C(OC(C)(C)C)C(=O)O)CN(C(=O)Cc1ccccc1)CC2(C)C` (centres unmarked) [Example 7, 2-tert-Butoxy-2-(4-(4-fluorophenyl)-2-isopropyl-8,8-dimethyl-6-(2-phenylacetyl)-5,6,7,8-tetrahydro-1,6-naphthyridin-3-yl)acetic acid] reads 7540 nM.
Consider `CC(C)c1nc2c(c(-c3ccc(F)cc3)c1C(OC(C)(C)C)C(=O)O)CN(C(=O)[C@@H]1C[C@H]1c1ccccc1)CC2(C)C` (stereo partly drawn) [Example 8, 2-tert-Butoxy-2-(4-(4-fluorophenyl)-2-isopropyl-8,8-dimethyl-6-((1R,2R)-2-phenylcyclopropanecarbonyl)-5,6,7,8-tetrahydro-1,6-naphthyridin-3-yl)acetic acid], for which the EC50 was 6720 nM.
The result for `CC(C)c1nc2c(c(-c3ccc(F)cc3)c1C(OC(C)(C)C)C(=O)O)CN(C(=O)CCCc1ccccc1)CC2(C)C` (centres unmarked) [Example 9, 2-tert-Butoxy-2-(4-(4-fluorophenyl)-2-isopropyl-8,8-dimethyl-6-(4-phenylbutanoyl)-5,6,7,8-tetrahydro-1,6-naphthyridin-3-yl)acetic acid] reads 6710 nM.
`CC(C)c1nc2c(c(-c3ccc(F)cc3)c1C(OC(C)(C)C)C(=O)O)CN(C(=O)C(=O)c1c[nH]c3ccccc13)CC2(C)C` (centres unmarked) [Example 11, 2-(6-(2-(1H-Indol-3-yl)-2-oxoacetyl)-4-(4-fluorophenyl)-2-isopropyl-8,8-dimethyl-5,6,7,8-tetrahydro-1,6-naphthyridin-3-yl)-2-tert-butoxyacetic acid]: the EC50 was found to be 4120 nM.
The result for `CC(C)c1nc2c(c(-c3ccc(F)cc3)c1C(OC(C)(C)C)C(=O)O)CN(C(=O)CCc1ccccc1)CC2(C)C` (centres unmarked) [Example 12, 2-tert-Butoxy-2-(4-(4-fluorophenyl)-2-isopropyl-8,8-dimethyl-6-(3-phenylpropanoyl)-5,6,7,8-tetrahydro-1,6-naphthyridin-3-yl)acetic acid] reads 7130 nM.
As to `CC(C)c1nc2c(c(-c3ccc(F)cc3)c1C(OC(C)(C)C)C(=O)O)CN(C(=O)c1ccc(-c3ccccc3)cc1)CC2(C)C` (centres unmarked) [Example 13, 2-(6-(Biphenylcarbonyl)-4-(4-fluorophenyl)-2-isopropyl-8,8-dimethyl-5,6,7,8-tetrahydro-1,6-naphthyridin-3-yl)-2-tert-butoxyacetic acid], the EC50 worked out at 2010 nM.
Take `Cc1onc(-c2ccccc2)c1C(=O)N1Cc2c(nc(C(C)C)c(C(OC(C)(C)C)C(=O)O)c2-c2ccc(F)cc2)C(C)(C)C1` (centres unmarked) [Example 14, 2-tert-Butoxy-2-(4-(4-fluorophenyl)-2-isopropyl-8,8-dimethyl-6-(5-methyl-3-phenylisoxazole-4-carbonyl)-5,6,7,8-tetrahydro-1,6-naphthyridin-3-yl)acetic acid]: the EC50 amounted to 10200 nM.
The result for `CC(C)c1nc2c(c(-c3ccc(F)cc3)c1C(OC(C)(C)C)C(=O)O)CN(c1ccccc1)CC2(C)C` (centres unmarked) [Example 15, 2-tert-Butoxy-2-(4-(4-fluorophenyl)-2-isopropyl-8,8-dimethyl-6-phenyl-5,6,7,8-tetrahydro-1,6-naphthyridin-3-yl)acetic acid] reads 2090 nM; that for `CC(C)c1nc2c(c(-c3ccc(F)cc3)c1C(OC(C)(C)C)C(=O)O)CN(Cc1ccc(F)cc1)CC2(C)C` (centres unmarked) [Example 16, 2-tert-Butoxy-2-(6-(4-fluorobenzyl)-4-(4-fluorophenyl)-2-isopropyl-8,8-dimethyl-5,6,7,8-tetrahydro-1,6-naphthyridin-3-yl)acetic acid], 6920 nM.
